In US4400387A, “Indolizine derivatives and uses in therapeutics” (S. A. Labaz-Sanofi N.V., priority 1979, dated 1983):

What was measured:
[1] = target: T1, adenosine deaminase obtained from calf intestine (Bos taurus, UniProt P56658); test: Inhibition of the action of adenosine deaminase in vitro (decrease in absorbance at 265 nm); format: biochemical; conditions: pH 7.4, 30° C.
T1 construct: purchased
T1 sequence (P56658 1-363): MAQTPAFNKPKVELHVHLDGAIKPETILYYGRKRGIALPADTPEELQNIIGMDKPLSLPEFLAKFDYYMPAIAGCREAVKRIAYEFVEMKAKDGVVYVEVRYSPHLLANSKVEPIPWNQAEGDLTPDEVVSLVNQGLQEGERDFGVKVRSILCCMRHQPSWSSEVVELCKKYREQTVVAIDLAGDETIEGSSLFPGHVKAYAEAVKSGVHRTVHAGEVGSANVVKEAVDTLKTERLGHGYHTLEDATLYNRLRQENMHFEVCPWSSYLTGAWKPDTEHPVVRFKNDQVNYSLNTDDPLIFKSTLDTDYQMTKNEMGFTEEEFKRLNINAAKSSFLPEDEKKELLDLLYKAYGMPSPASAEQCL
Protocol: This test was performed with adenosine deaminase obtained from calf intestine.
(§1) The experimental procedure described hereunder was used:
In the absorption cell the following solutions were introduced:
2.7 ml of a 0.1 molar phosphate buffer solution (pH=7.4)
0.3 ml of a 10^-4 or 5.10^-4 molar solution of adenosine in the phosphate buffer solution (final concentration in adenosine: 10^-5 or 5.10^-5 mol) 0.01 ml of a 3.10^-3 molar ethanolic solution of the compound to be studied (about 10 milliunits)
The contents of the absorption cell were allowed to incubate for 2 minutes and then the enzymatic reaction was started by adding 0.03 ml of a commercial adenosine deaminase solution having a known concentration in enzyme. The reaction was performed at 30° C. and followed by spectrophotometric recording of the decrease in absorbance at 265 nm due to the transformation of adenosine into inosine by means of adenosine deaminase. This enzymatic reaction can be represented by the following equation: [formula]
The same measurements were performed with a control solution containing all the ingredients referred to above except the compound being studied. Curves were then plotted representing the decrease in absorbance in comparison with time obtained on the one hand with the solution containing the inhibitor and on the other with the control solution.
The slope of both curves was measured and expressed in the number of mols of inosine formed in one minute. After that, the percent of inhibition of the activity of adenosine deaminase provoked by a compound of the invention was calculated.

[2] = target: T2, xanthine oxidase found in milk (Bos taurus, UniProt P80457); test: Inhibition of the action of xanthine oxidase in vitro (U.V. spectrophotometry, formation of uric acid from hypoxanthine); format: biochemical; conditions: compound at 10^-5 M; hypoxanthine substrate, pH 7.4, 37° C.
T2 construct: purchased
Protocol: This trial was performed with xanthine oxidase found in milk. The activity of the enzymatic preparation was measured by following the formation of uric acid starting from hypoxanthine in the presence of oxygen and of a phosphate buffer solution.
as §1
In the absorption cell, the following solutions were introduced:
1.5 ml of a 0.1 molar phosphate buffer solution (pH=7.4) saturated with oxygen.
0.3 ml of a 1 m molar solution of ethylene diamine tetraacetate.
0.01 ml of a commercial xanthine oxidase solution having a known concentration in enzyme.
0.01 ml of a 3.10^-3 molar ethanolic solution of the compound to be tested.
The contents of the absorption cell were allowed to incubate for 2 minutes and then the enzymatic reaction was started by adding 0.3 ml of a 10^-3 molar solution of hypoxanthine to the absorption cell. The reaction was followed by spectrophotometric recording of the oxidation rate of hypoxanthine at 293 nm and at 37° C. The optical density was automatically registered. The same measurements were performed with a control solution containing all the ingredients referred to above except the compound being tested.
In this way, a curve representing the variation in optical density in comparison with time was obtained with the solution containing the inhibitor on the one hand and devoid of inhibitor on the other. The slope of both curves was measured and expressed in the number of mols of uric acid formed in one minute. Thus, it was possible to compare the values obtained and calculate, in percent, the inhibition of the activity of xanthine oxidase provoked by a compound of the invention.

T2 sequence (P80457 whole entry): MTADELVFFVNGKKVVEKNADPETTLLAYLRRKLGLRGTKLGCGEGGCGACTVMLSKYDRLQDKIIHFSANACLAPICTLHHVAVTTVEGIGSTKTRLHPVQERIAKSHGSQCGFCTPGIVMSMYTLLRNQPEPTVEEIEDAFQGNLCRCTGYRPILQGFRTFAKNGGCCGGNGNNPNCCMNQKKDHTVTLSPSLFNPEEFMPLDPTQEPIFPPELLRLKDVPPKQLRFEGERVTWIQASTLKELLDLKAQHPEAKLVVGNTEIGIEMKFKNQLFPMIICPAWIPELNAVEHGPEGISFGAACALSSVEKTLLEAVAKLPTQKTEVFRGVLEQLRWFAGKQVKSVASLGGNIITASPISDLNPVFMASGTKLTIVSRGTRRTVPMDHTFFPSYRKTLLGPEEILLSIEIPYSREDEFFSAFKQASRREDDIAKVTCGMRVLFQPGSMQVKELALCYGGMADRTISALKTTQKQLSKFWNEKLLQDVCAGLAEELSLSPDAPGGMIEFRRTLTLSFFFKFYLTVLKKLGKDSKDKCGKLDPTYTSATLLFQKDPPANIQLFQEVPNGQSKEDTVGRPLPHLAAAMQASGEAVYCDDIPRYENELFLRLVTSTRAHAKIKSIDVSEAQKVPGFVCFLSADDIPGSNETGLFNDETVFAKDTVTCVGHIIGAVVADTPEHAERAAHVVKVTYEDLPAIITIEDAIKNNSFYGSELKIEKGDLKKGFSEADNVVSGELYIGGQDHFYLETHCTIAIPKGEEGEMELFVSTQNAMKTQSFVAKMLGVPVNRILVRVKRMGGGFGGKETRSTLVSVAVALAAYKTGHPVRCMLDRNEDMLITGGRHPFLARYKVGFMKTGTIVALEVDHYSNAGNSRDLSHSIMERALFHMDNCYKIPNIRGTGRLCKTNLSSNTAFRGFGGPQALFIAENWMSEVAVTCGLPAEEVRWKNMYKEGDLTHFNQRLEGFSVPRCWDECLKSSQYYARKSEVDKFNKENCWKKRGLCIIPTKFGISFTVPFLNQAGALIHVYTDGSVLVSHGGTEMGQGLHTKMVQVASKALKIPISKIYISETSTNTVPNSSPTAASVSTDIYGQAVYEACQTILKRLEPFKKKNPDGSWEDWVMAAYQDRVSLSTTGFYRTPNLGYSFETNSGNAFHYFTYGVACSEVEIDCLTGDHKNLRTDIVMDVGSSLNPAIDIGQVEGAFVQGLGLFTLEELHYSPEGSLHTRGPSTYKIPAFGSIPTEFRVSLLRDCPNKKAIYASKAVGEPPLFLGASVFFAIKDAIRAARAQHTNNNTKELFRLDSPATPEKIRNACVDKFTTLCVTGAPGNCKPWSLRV

| Inhibition of the action of adenosine deaminase in vitro (in %) At 10^-5 M adenosine [1] | inhibition at 10 µM [2] | SMILES | further results |
| --- | --- | --- | --- |
| totally inactive |  | CCc1oc2ccccc2c1C(=O)c1cc(I)c(O)c(I)c1 [2-ethyl-3-(3,5-diiodo-4-hydroxy-benzoyl)-benzofuran, reference compound] |  |
| 18% |  | CCc1oc2ccccc2c1C(=O)c1ccc(O)cc1 [2-ethyl-3-(4-hydroxy-benzoyl)-benzofuran, reference compound] |  |
| totally inactive |  | CC(C)c1oc2ccccc2c1C(=O)c1cc(Br)c(O)c(Br)c1 [2-isopropyl-3-(3,5-dibromo-4-hydroxy-benzoyl)-benzofuran, reference compound] |  |
| totally inactive |  | CCCCc1oc2ccccc2c1C(=O)c1cc(Br)c(O)c(Br)c1 [2-n-butyl-3-(3,5-dibromo-4-hydroxy-benzoyl)-benzofuran, reference compound] |  |
| 15% |  | O=C(c1cc(Br)c(O)c(Br)c1)c1c(-c2ccccc2)oc2ccccc12 [2-phenyl-3-(3,5-dibromo-4-hydroxy-benzoyl)-benzofuran, reference compound] |  |
|  |  | O=C(c1ccc(O)cc1)c1c(-c2cccc(Br)c2)c(Cl)c2ccccn12 [3-Bromo-phenyl Cl H H, 1-Chloro-2-(3-bromo-phenyl)-3-(4-hydroxy-benzoyl)indolizine] | Inhibition of the action of adenosine deaminase in vitro (in %) At 5.10^-5 M adenosine [1]: 55% |
|  | 23% | O=C(c1ccc(O)c(Cl)c1)c1c(-c2cccc(Br)c2)cc2ccccn12 [3-Bromo-phenyl H H Cl, 2-(3-Bromo-phenyl)-3-(3-chloro-4-hydroxy-benzoyl)-indolizine] |  |
|  | 23% | O=C(c1cc(Br)c(O)c(Br)c1)c1c(-c2ccc(Br)cc2)cc2ccccn12 [4-Bromo-phenyl H Br Br, 2-(4-Bromo-phenyl)-3-(3,5-dibromo-4-hydroxy-benzoyl)-indolizine] |  |
|  | 22% | O=C(c1ccc(O)c(Br)c1)c1c(-c2ccc(Br)cc2)cc2ccccn12 [4-Bromo-phenyl H H Br, 2-(4-Bromo-phenyl)-3-(3-bromo-4-hydroxy-benzoyl)-indolizine] |  |
| 60% |  | O=C(c1ccc(O)c(Br)c1)c1c(-c2ccc(F)cc2)cc2ccccn12 [4-Fluoro-phenyl H H Br, 2-(4-Fluoro-phenyl)-3-(3-bromo-4-hydroxy-benzoyl)-indolizine] |  |
|  |  | COc1cc(C(=O)c2c(-c3ccc(F)cc3)cc3ccccn23)ccc1O [4-Fluoro-phenyl H H OCH3, 2-(4-Fluoro-phenyl)-3-(3-methoxy-4-hydroxy-benzoyl)-indolizine] | Inhibition of the action of adenosine deaminase in vitro (in %) At 5.10^-5 M adenosine [1]: 39% |
|  | 80% | COc1ccc(-c2c(Br)c3ccccn3c2C(=O)c2ccc(O)c(Br)c2)cc1 [4-Methoxy-phenyl Br Br H, 1-Bromo-2-(4-methoxy-phenyl)-3-(3-bromo-4-hydroxy-benzoyl)-indolizine] |  |
|  | 48% | Cc1ccc(-c2c(Br)c3ccccn3c2C(=O)c2ccc(O)cc2)cc1 [4-Methyl-phenyl Br H H, 1-Bromo-2-(4-methyl-phenyl)-3-(4-hydroxy-benzoyl)-indolizine] |  |
|  | 93% | CCc1c(Br)c2ccccn2c1C(=O)c1ccc(O)c(Br)c1 [Ethyl Br Br H, 1-Bromo-2-ethyl-3-(3-bromo-4-hydroxy-benzoyl)-indolizine] |  |
|  | 64% | CCc1c(Cl)c2ccccn2c1C(=O)c1cc(Br)c(O)c(Br)c1 [Ethyl Cl Br Br, 1-Chloro-2-ethyl-3-(3,5-dibromo-4-hydroxy-benzoyl)-indolizine] |  |
|  | 34% | CCc1c(Cl)c2ccccn2c1C(=O)c1ccc(O)c(Br)c1 [Ethyl Cl Br H, 1-Chloro-2-ethyl-3-(3-bromo-4-hydroxy-benzoyl)-indolizine] |  |
|  | 98% | CCc1cc2ccccn2c1C(=O)c1cc(Cl)c(O)c(Cl)c1 [Ethyl H Cl Cl, 2-Ethyl-3-(3,5-dichloro-4-hydroxy-benzoyl)-indolizine] |  |
|  | 87% | CCc1cc2ccccn2c1C(=O)c1ccc(O)c(Cl)c1 [Ethyl H H Cl, 2-Ethyl-3-(3-chloro-4-hydroxy-benzoyl)-indolizine] |  |
| 75% |  | CC(C)c1c(Br)c2ccccn2c1C(=O)c1ccc(O)c(Br)c1 [Isopropyl Br Br H, 1-Bromo-2-isopropyl-3-(3-bromo-4-hydroxy-benzoyl)-indolizine] | Inhibition of the action of adenosine deaminase in vitro (in %) At 5.10^-5 M adenosine [1]: 54% |
|  |  | O=C(c1ccc(O)c(Cl)c1)c1c(-c2ccccc2)c(Br)c2ccccn12 [Phenyl Br Cl H, 1-Bromo-2-phenyl-3-(3-chloro-4-hydroxy-benzoyl)-indolizine] | Inhibition of the action of adenosine deaminase in vitro (in %) At 5.10^-5 M adenosine [1]: 86% |
|  |  | O=C(c1ccc(O)cc1)c1c(-c2ccccc2)c(Br)c2ccccn12 [Phenyl Br H H, 1-Bromo-2-phenyl-3-(4-hydroxy-benzoyl)-indolizine] | Inhibition of the action of adenosine deaminase in vitro (in %) At 5.10^-5 M adenosine [1]: 52% |
|  |  | O=C(c1cc(Cl)c(O)c(Cl)c1)c1c(-c2ccccc2)c(Cl)c2ccccn12 [Phenyl Cl Cl Cl, 1-Chloro-2-phenyl-3-(3,5-dichloro-4-hydroxy-benzoyl)-indolizine] | Inhibition of the action of adenosine deaminase in vitro (in %) At 5.10^-5 M adenosine [1]: 57% |
| 78% |  | O=C(c1ccc(O)c(Br)c1)c1c(-c2ccccc2)cc2ccccn12 [Phenyl H H Br, 2-Phenyl-3-(3-bromo-4-hydroxy-benzoyl)-indolizine] |  |
| 58% |  | O=C(c1ccc(O)c(Cl)c1)c1c(-c2ccccc2)cc2ccccn12 [Phenyl H H Cl, 2-Phenyl-3-(3-chloro-4-hydroxy-benzoyl)-indolizine] |  |
|  |  | COc1c(-c2ccccc2)c(C(=O)c2ccc(O)c(Br)c2)n2ccccc12 [Phenyl OCH3 Br H, 1-Methoxy-2-phenyl-3-(3-bromo-4-hydroxy-benzoyl)-indolizine] | Inhibition of the action of adenosine deaminase in vitro (in %) At 5.10^-5 M adenosine [1]: 91% |
|  |  | COc1c(-c2ccccc2)c(C(=O)c2ccc(O)c(Cl)c2)n2ccccc12 [Phenyl OCH3 Cl H, 1-Methoxy-2-phenyl-3-(3-chloro-4-hydroxy-benzoyl)-indolizine] | Inhibition of the action of adenosine deaminase in vitro (in %) At 5.10^-5 M adenosine [1]: 82% |
| 45% |  | CCCCc1c(Br)c2ccccn2c1C(=O)c1ccc(O)cc1 [n-Butyl Br H H, 1-Bromo-2-n-butyl-3-(4-hydroxy-benzoyl)-indolizine] |  |
| 60% |  | CCCCc1cc2ccccn2c1C(=O)c1ccc(O)c(Br)c1 [n-Butyl H H Br, 2-n-Butyl-3-(3-bromo-4-hydroxy-benzoyl)-indolizine] |  |
| 42% |  | CCCc1cc2ccccn2c1C(=O)c1ccc(O)c(Cl)c1 [n-Propyl H H Cl, 2-n-Propyl-3-(3-chloro-4-hydroxy-benzoyl)-indolizine] |  |

| SMILES | Inhibition of the action of adenosine deaminase in vitro (in %) At 10^-5 M adenosine [1] | inhibition at 10 µM [2] | further results |
| --- | --- | --- | --- |
| CCc1oc2ccccc2c1C(=O)c1cc(Br)c(O)c(Br)c1 [2-ethyl-3-(3,5-dibromo-4-hydroxy-benzoyl)-benzofuran, reference compound] | totally inactive |  |  |
| CC(C)c1c(Br)c2ccccn2c1C(=O)c1cc(Br)c(O)c(Br)c1 [Isopropyl Br Br Br, 1-Bromo-2-isopropyl-3-(3,5-dibromo-4-hydroxy-benzoyl)-indolizine] | 57% |  |  |
